Test results taken from patent publication US7996156B2, “Methods for predicting properties of molecules” (priority 2002, dated 2011).
Like-named read-outs stand apart in the source and are kept apart here.

Target: T1, estrogen receptor (Rattus norvegicus, UniProt P06211)
T1 construct: in rat uterine cytosol, which was obtained from ovariectomized uteri of Sprague-Dawley rats; from tissue; host or cells: uterine cytosol of ovariectomized Sprague-Dawley rats
T1 sequence (P06211 1-600): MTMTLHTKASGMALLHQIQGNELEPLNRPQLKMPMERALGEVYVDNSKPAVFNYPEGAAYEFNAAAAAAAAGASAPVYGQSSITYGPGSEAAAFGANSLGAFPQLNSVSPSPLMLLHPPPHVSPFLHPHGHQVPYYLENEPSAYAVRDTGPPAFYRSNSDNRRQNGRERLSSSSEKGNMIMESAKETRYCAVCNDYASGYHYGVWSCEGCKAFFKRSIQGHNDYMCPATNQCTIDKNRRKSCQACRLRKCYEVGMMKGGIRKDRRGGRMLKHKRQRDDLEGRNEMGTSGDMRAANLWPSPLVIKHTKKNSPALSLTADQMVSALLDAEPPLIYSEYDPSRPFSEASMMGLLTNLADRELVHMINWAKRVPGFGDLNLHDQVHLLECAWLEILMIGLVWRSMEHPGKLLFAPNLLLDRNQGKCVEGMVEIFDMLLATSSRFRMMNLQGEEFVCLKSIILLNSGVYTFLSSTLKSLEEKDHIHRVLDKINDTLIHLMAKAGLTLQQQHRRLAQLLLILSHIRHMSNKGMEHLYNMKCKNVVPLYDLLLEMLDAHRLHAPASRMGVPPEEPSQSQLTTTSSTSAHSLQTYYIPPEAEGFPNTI
Assay: Competitive ER binding assay with [3H]E2 in rat uterine cytosol (NCTR)
From the text: The log relative binding activity (RBA) data for these 130 structurally diverse compounds was used to train the CoSCoSA models. The data was produced at NCTR using a competitive ER binding assay with radiolabeled estradiol ([^3H]E2) in rat uterine cytosol, which was obtained from ovariectomized uteri of Sprague-Dawley rats. […] For each of the 130 compounds, the ^13C 2D ^13C—^13C COSY NMR experiment was simulated using the ACD Labs CNMR version 5.0 2D predictor software. The COSY NMR spectra could be saved as two tables per compound.

[1] = relative binding affinity vs 17-β-estradiol (RBA 100), rat uterine cytosol, 130 compound training set

How did the “Exp. Log(RBA)” value turn out when Oc1ccc(OCc2ccccc2)cc1 [4-benzyloxyphenol] was run?
The value was −3.44.

Which “Exp. Log(RBA)” value does the source give for CCCCCCCCCCCCc1ccc(O)cc1 [4-dodecylphenol] here?
Its value is −1.73.

For CCCCCCCOc1ccc(O)cc1 [4-heptyloxyphenol], which “Exp. Log(RBA)” value [1] is on record?
Its value is −2.88.

How did the “Exp. Log(RBA)” value turn out when C[C@]12CC[C@@H]3c4ccc(O)c(O)c4CC[C@H]3[C@@H]1CC[C@@H]2O [4-hydroxyestradiol] was run?
Its value is 2.24.

CCCCCCCCCc1ccc(O)cc1 [4-nonylphenol] was tested. Which “Exp. Log(RBA)” value did it give?
The value was −1.53.

For Oc1ccc(CCc2ccccc2)cc1 [4-phenethylphenol], which “Exp. Log(RBA)” value [1] is on record?
Its value is −2.69.

With CCC(C)(C)c1ccc(O)cc1 [4-tert-amylphenol] as the molecule, how does the “Exp. Log(RBA)” value read?
Its value is −3.26.

With CC(C)(C)c1ccc(O)cc1 [4-tert-butylphenol] as the molecule, how does the “Exp. Log(RBA)” value read?
Its value is −3.61.

Which “Exp. Log(RBA)” value [1] does the source give for O=C(/C=C/c1ccccc1)c1ccc(O)cc1 [4′-OH-chalcone] here?
Its value is −2.43.

O=C1CC(c2ccc(O)cc2)Oc2ccccc21 (stereo not drawn) [4′-hydroxyflavanone] was tested. Which “Exp. Log(RBA)” value [1] did it give?
The value was −2.65.

O=C1CC(c2ccccc2)Oc2ccc(O)cc21 (stereo not drawn) [6-hydroxyflavanone] was tested. Which “Exp. Log(RBA)” value [1] did it give?
The value was −3.05.

O=c1cc(-c2ccccc2)oc2ccc(O)cc12 [6-hydroxyflavone] was tested. Which “Exp. Log(RBA)” value [1] did it give?
Its value is −3.41.

C[C@@]12CCC[C@H]1[C@@H]1CCc3cc(O)ccc3[C@H]1CC2 [17-deoxyestradiol] was tested. Which “Exp. Log(RBA)” value [1] did it give?
Its value is 1.14.

With CCCCN(C)C(=O)CCCCCCCCCC[C@@H]1Cc2cc(O)ccc2[C@H]2CC[C@]3(C)[C@@H](O)CC[C@H]3[C@H]12 [ICI164384] as the molecule, how does the “Exp. Log(RBA)” value [1] read?
The value was 1.16.

C[C@]12CC[C@@H]3c4ccc(O)cc4C[C@@H](CCCCCCCCC[S+]([O-])CCCC(F)(F)C(F)(F)F)[C@H]3[C@@H]1CC[C@@H]2O (stereo partly drawn) [ICI182780] was tested. Which “Exp. Log(RBA)” value did it give?
The value was 1.57.

With O=C1C=CC(=C(c2ccc(O)cc2)c2ccc(O)cc2)C=C1 [aurin] as the molecule, how does the “Exp. Log(RBA)” value read?
Its value is −1.5.

For O=c1cc(-c2ccccc2)oc2cc(O)c(O)c(O)c12 [baicalein], which “Exp. Log(RBA)” value is on record?
Its value is −3.35.

How did the “Exp. Log(RBA)” value [1] turn out when O=C(OCc1ccccc1)c1ccc(O)cc1 [benzyl-4-hydroxybenzoate] was run?
The value was −2.54.

Which “Exp. Log(RBA)” value [1] does the source give for COc1ccc(-c2coc3cc(O)cc(O)c3c2=O)cc1 [biochanin A] here?
Its value is −2.37.

How did the “Exp. Log(RBA)” value turn out when Oc1ccc(Cc2ccc(O)cc2)cc1 [bis-(4-hydroxyphenyl)methane] was run?
The value was −3.02.

CC(C)(c1ccc(O)cc1)c1ccc(O)cc1 [bisphenol A] was tested. Which “Exp. Log(RBA)” value [1] did it give?
Its value is −2.11.

For CCC(C)(c1ccc(O)cc1)c1ccc(O)cc1 [bisphenol B], which “Exp. Log(RBA)” value is on record?
Its value is −1.07.

Which “Exp. Log(RBA)” value does the source give for O=C(/C=C/c1ccccc1)c1ccccc1 [chalcone] here?
Its value is −2.82.

O=c1c(-c2ccc(O)cc2)coc2cc(O)ccc12 [daidzein] was tested. Which “Exp. Log(RBA)” value did it give?
Its value is −1.65.

C/C=C(/C(=C/C)c1ccc(O)cc1)c1ccc(O)cc1 [dienestrol] was tested. Which “Exp. Log(RBA)” value did it give?
The value was 1.57.

With CC/C(=C(/CC)c1ccc(OC)cc1)c1ccc(OC)cc1 [dietheylstilbestrol dimethyl ether] as the molecule, how does the “Exp. Log(RBA)” value [1] read?
The value was −1.25.

How did the “Exp. Log(RBA)” value [1] turn out when CC/C(=C(/CC)c1ccc(OC)cc1)c1ccc(O)cc1 [diethylstilbestrol monomethyl ether] was run?
The value was 1.31.

COc1cc(C(=C(Cl)Cl)c2ccc(O)cc2)ccc1O [dihydroxymethoxychlorolefin] was tested. Which “Exp. Log(RBA)” value did it give?
Its value is 0.42.

With C/C(=C(/C)c1ccc(O)cc1)c1ccc(O)cc1 [dimethylstibestrol] as the molecule, how does the “Exp. Log(RBA)” value [1] read?
Its value is 1.16.

Which “Exp. Log(RBA)” value does the source give for CC(CCC(=O)O)(c1ccc(O)cc1)c1ccc(O)cc1 [diphenolic acid] here?
The value was −3.13.

CC[C@H]1c2ccc3cc(OC)ccc3c2CC[C@@]1(C)C(=O)O [doisynoestrol] was tested. Which “Exp. Log(RBA)” value [1] did it give?
Its value is −2.74.

How did the “Exp. Log(RBA)” value turn out when CC/C(=C(/c1ccc(OCCN(C)C)cc1)c1cccc(O)c1)c1ccccc1 [droloxifene] was run?
The value was 1.18.

For Oc1ccc([C@H]2COc3cc(O)ccc3C2)cc1 [equol], which “Exp. Log(RBA)” value is on record?
The value was −0.82.

With CCOC(=O)c1ccc(O)cc1 [ethyl-4-hydrobenzoate] as the molecule, how does the “Exp. Log(RBA)” value [1] read?
The value was −3.22.

Which “Exp. Log(RBA)” value [1] does the source give for O=c1c(O)c(-c2ccc(O)c(O)c2)oc2cc(O)ccc12 [fisetin] here?
The value was −2.35.

CCCCCCCOC(=O)c1ccc(O)cc1 [heptyl-4-hydroxybenzoate] was tested. Which “Exp. Log(RBA)” value [1] did it give?
The value was −2.09.

CC[C@H](c1ccc(O)cc1)[C@@H](CC)c1ccc(O)cc1 [meso-hexestrol] was tested. Which “Exp. Log(RBA)” value did it give?
The value was 2.48.

With C#C[C@]1(O)CC[C@H]2[C@@H]3CCc4cc(OC)ccc4[C@H]3CC[C@@]21C [mestranol] as the molecule, how does the “Exp. Log(RBA)” value read?
The value was 0.35.

With COC(=O)c1ccc(O)cc1 [methyl-4-hydrobenzoate] as the molecule, how does the “Exp. Log(RBA)” value [1] read?
The value was −3.44.

COc1ccc(C(c2ccc(O)cc2)C(Cl)(Cl)Cl)cc1 (stereo not drawn) [monohydroxymethoxychlor] was tested. Which “Exp. Log(RBA)” value [1] did it give?
Its value is −0.89.

For COc1ccc(C(=C(Cl)Cl)c2ccc(O)cc2)cc1 [monohydroxymethoxychlorolefin], which “Exp. Log(RBA)” value [1] is on record?
The value was −0.63.

How did the “Exp. Log(RBA)” value [1] turn out when CCC(c1ccc(O)cc1)C(CC)c1ccc(OC)cc1 (stereo not drawn) [monomethyl ether hexestrol] was run?
Its value is 0.97.

For O=c1c(O)c(-c2ccc(O)cc2O)oc2cc(O)cc(O)c12 [morin], which “Exp. Log(RBA)” value [1] is on record?
The value was −3.35.

Which “Exp. Log(RBA)” value does the source give for C#C[C@]1(O)CC[C@H]2[C@@H]3CCc4cc(O)ccc4[C@H]3[C@@H](OC)C[C@@]21C [moxestrol] here?
Its value is 1.14.

Which “Exp. Log(RBA)” value does the source give for O=c1c(O)c(-c2cc(O)c(O)c(O)c2)oc2cc(O)cc(O)c12 [myricetin] here?
Its value is −2.75.

With O=C1C[C@@H](c2ccc(O)cc2)Oc2cc(O)cc(O)c21 [naringenin] as the molecule, how does the “Exp. Log(RBA)” value read?
Its value is −2.13.

CC(Cc1ccc(O)c(O)c1)C(C)Cc1ccc(O)c(O)c1 (stereo not drawn) [nordihydroguariareticacid] was tested. Which “Exp. Log(RBA)” value [1] did it give?
Its value is −1.51.

How did the “Exp. Log(RBA)” value [1] turn out when Clc1ccc(C(c2ccccc2Cl)C(Cl)(Cl)Cl)cc1 (stereo not drawn) [o,p′,-DDT] was run?
Its value is −2.85.

With Oc1ccc(-c2ccccc2)cc1 [p-phenylphenol] as the molecule, how does the “Exp. Log(RBA)” value read?
Its value is −3.04.

Which “Exp. Log(RBA)” value [1] does the source give for O=C(O)c1ccccc1C(c1ccc(O)cc1)c1ccc(O)cc1 [phenolphthalin] here?
The value was −3.67.

O=C(CCc1ccc(O)cc1)c1c(O)cc(O)cc1O [phloretin] was tested. Which “Exp. Log(RBA)” value did it give?
Its value is −1.16.

CCCOC(=O)c1ccc(O)cc1 [propyl-4-hydroxybenzoate] was tested. Which “Exp. Log(RBA)” value did it give?
The value was −3.22.

With COc1cc(O)c2c(=O)c(-c3ccc(O)cc3)coc2c1 [prunetin] as the molecule, how does the “Exp. Log(RBA)” value read?
Its value is −2.74.

For C(=C(c1ccccc1)c1ccccc1)c1ccccc1 [triphenylethylene], which “Exp. Log(RBA)” value [1] is on record?
Its value is −2.78.

With C[C@H]1CCCC(=O)CCCCCc2cc(O)cc(O)c2C(=O)O1 [zearalanone] as the molecule, how does the “Exp. Log(RBA)” value read?
Its value is 0.32.

With CCC(c1ccc2cc(O)ccc2c1)C(C)(C)C(=O)O (stereo not drawn) [α,α-dimethylbethyl allenolic acid] as the molecule, how does the “Exp. Log(RBA)” value [1] read?
Its value is −0.02.

How did the “Exp. Log(RBA)” value [1] turn out when C[C@H]1CCC[C@H](O)CCCCCc2cc(O)cc(O)c2C(=O)O1 [α-zearalanol] was run?
Its value is 1.48.

How did the “Exp. Log(RBA)” value [1] turn out when C[C@H]1CCC[C@H](O)CCC/C=C/c2cc(O)cc(O)c2C(=O)O1 [α-zearalenol] was run?
Its value is 1.63.

C[C@H]1CCC[C@@H](O)CCCCCc2cc(O)cc(O)c2C(=O)O1 [β-zearalanol] was tested. Which “Exp. Log(RBA)” value [1] did it give?
The value was −0.19.

For C[C@H]1CCC[C@@H](O)CCC/C=C/c2cc(O)cc(O)c2C(=O)O1 [β-zearalenol], which “Exp. Log(RBA)” value [1] is on record?
The value was −0.69.
